Columns and labels:
[1] = system: TEAD transcriptional activity; assay: TEAD reporter activity inhibition test (luciferase reporter, MCF7 cell line); type: cell-based; settings: Homo sapiens; TEAD (GTIIC) firefly luciferase reporter MCF7 cell line, 24 hours, ONE-Glo luminescence
Procedure: Experimental Example 1: TEAD Reporter Activity Inhibition Test
The ability of the synthetic compounds to inhibit TEAD target gene transcription was measured. This evaluation method measures the transcriptional activity of TEAD by measuring the luciferase luminescence expressed when TEAD binds to a target gene and activates transcription using the MCF7 cell line (BPS Bioscience, Inc., USA) in which a firefly luciferase reporter gene has been introduced into the specific binding structure of TEAD, GTIIC (5′-ACATTCCA-3′). Cell lines were cultured in MEM medium added with 10% FBS, 1% Penicillin/Streptomycin, 1% non-essential amino acids, 10 μg/ml insulin, and 400 μg/ml Geneticin, and Geneticin was excluded when testing for inhibition of TEAD reporter activity. […] cells/100 μl were dispensed into a white 96-well plate and cultured for 6 hours. 50 μl of the test compound diluted to 3× concentration was mixed into each well. After 24 hours of cell culture, the luciferase signal was measured by luminescence using the ONE-Glo luciferase assay system (Promega, E6120) following the manufacturer's protocol. The 50% inhibition value (IC50) for TEAD transcriptional activity was calculated using GraphPad Prism 9.
If the IC50 value is less than 100 nM, it is indicated as A, if it is at least 100 nM but less than 500 nM, it is indicated as B, and if it is 500 nM or more, it is indicated as C.

[2] = system: NCI-H226 cells; assay: Cell growth inhibition test (SRB); type: cell-based; settings: Homo sapiens, 144 h; NCI-H226 mesothelioma cell line lacking the NF2 gene, cultured for 6 days, SRB test method
Procedure: Experimental Example 2: Cell Growth Inhibition Test
The synthetic compound was confirmed to inhibit cell growth in NCI-H226 cells. NCI-H226 is a mesothelioma cancer cell line lacking the NF2 gene, and was cultured in RPMI 1640 medium supplemented added with 10% FBS and 1% Penicillin/Streptomycin. Cultured cells were dispensed into 96-well plates at 0.7×10^3 cells/100 μl and cultured for 24 hours, then 100 μl of the test compound diluted to a 2× concentration were mixed into each well and cultured for 6 days. The SRB test method was used to measure cell growth inhibition, and the 50% inhibition value (GI50) for cell growth by the compound was calculated using GraphPad Prism 9.
If the GI50 value is less than 100 nM, it is indicated as A, and if it is 100 nM or more, it is indicated as B.

Structure (SMILES)	IC50 [1] [µM]	GI50 [2] [µM]
CNS(=O)(=O)c1ccc2c(c1)c(-c1cn(CCOC)cn1)cn2-c1ccc(C(F)(F)F)cc1 [Example 38, 3-(1-(2-methoxyethyl)-1H-imidazol-4-yl)-N-methyl-1-(4-(trifluoromethyl)phenyl)-1H-indole-5-sulfonamide]	< 0.1	< 0.1
CNS(=O)(=O)c1ccc2c(c1)c(-c1cn(C)cn1)cn2-c1ccc(C(F)(F)F)cc1 [Example 2, N-methyl-3-(1-methyl-1H-imidazol-4-yl)-1-(4-(trifluoromethyl)phenyl)-1H-indole-5-sulfonamide]	< 0.1	< 0.1
CNS(=O)(=O)c1ccc2c(c1)c(-c1ccoc1)cn2-c1ccc(C(F)(F)F)cc1 [Example 23, 3-(furan-3-yl)-N-methyl-1-(4-(trifluoromethyl)phenyl)-1H-indole-5-sulfonamide]	< 0.1	< 0.1
CNS(=O)(=O)c1ccc2c(c1)c(-c1ccco1)cn2-c1ccc(C(F)(F)F)cc1 [Example 31, 3-(furan-2-yl)-N-methyl-1-(4-(trifluoromethyl)phenyl)-1H-indole-5-sulfonamide]	< 0.1	< 0.1
CNS(=O)(=O)c1ccc2c(c1)c(-c1cn(C3CC3)cn1)cn2-c1ccc(C(F)(F)F)cc1F [Example 42, 3-(1-cyclopropyl-1H-imidazol-4-yl)-1-(2-fluoro-4-(trifluoromethyl)phenyl)-N-methyl-1H-indole-5-sulfonamide]	< 0.1	< 0.1
CCn1cnc(-c2cn(-c3ccc(C(F)(F)F)cc3)c3ccc(S(=O)(=O)NC)cc23)c1 [Example 11, 3-(1-ethyl-1H-imidazol-4-yl)-N-methyl-1-(4-(trifluoromethyl)phenyl)-1H-indole-5-sulfonamide]	< 0.1	< 0.1
CNS(=O)(=O)c1cnc2c(c1)c(-c1cn(C3CC3)cn1)cn2-c1ccc(C(F)(F)F)cc1 [Example 43, 3-(1-cyclopropyl-1H-imidazol-4-yl)-N-methyl-1-(4-(trifluoromethyl)phenyl)-1H-pyrrolo[2,3-b]pyridine-5-sulfonamide]	< 0.1	< 0.1

— patent US20260124197A1, “NOVEL HETEROBICYCLIC COMPOUND FOR INHIBITING YAP-TEAD INTERACTION AND PHARMACEUTICAL COMPOSITION COMPRISING SAME” (priority 2022, published 2026)
